In PMC10892288, “Early Stage Preclinical Formulation Strategies to Alter the Pharmacokinetic Profile of Two Small Molecule Therapeutics” (Pharmaceuticals, 2024):

Tests used:
[1] = Mouse PK of G7883, SC in sunflower oil; type: in vivo
Protocol: was screened in different oil vehicles including corn, coconut, paraffin, soybean, and sunflower oil. […] For subcutaneous administrations, […] was formulated in sunflower oil as a suspension and dosed at 250 mg/kg with a dosing volume of 5 mL/kg. Food and water were available ad libitum to animals. Blood samples were collected post-dose into tubes containing K2EDTA as an anticoagulant. Samples were taken from three different animals at each time point. After the blood was mixed with K2EDTA, the samples were stored at -80 °C until analysis. All plasma and cell media concentrations of […] and […] were determined using liquid chromatography-tandem mass spectrometry after protein precipitation with acetonitrile and injection of the supernatant onto the column (Waters ACQUITY UPLC BEH C18 1.7 μm, 2.1 × 50 mm for […] and […]). The aqueous mobile phase was 0.1% formic acid, 2 mM ammonium formate in water/acetonitrile (v:v, 95:5), and the organic mobile phase was 0.1% formic acid, 2 mM ammonium formate in acetonitrile/water (v:v, 95:5). An AB Sciex API 4000 Triple Quad instrument was used for detecting […] and […] (Figure S2). The electrospray ionization source in both columns was operated in the positive ion and multiple reaction monitoring (MRM) detection modes. The MRM transitions for […] and […] were m/z 462.2 (Q1) and 253.10 (Q3) and m/z 454.2 (Q1) and 325.9 (Q3), respectively. The dynamic range of both assays was 0.50-50.0 ng/mL, and the total run time was 1.6 min. The lower limit of quantitation of the assay was […], and the dilution quality control concentration was set at 10 ng/mL with acceptance criteria for accuracy and precision of 25%. All plasma and cell media concentrations of […] were determined using liquid chromatography-tandem mass spectrometry after protein precipitation with acetonitrile and injection of the supernatant onto the column (Phenomenex Kinetex XB-C18, 30 × 2.1 mm, 2.6 μm). The aqueous mobile phase was 10 mM of ammonium formate in water, and the organic mobile phase was 0.1% formic acid in acetonitrile. An AB Sciex API 5500 Triple Quad instrument was used for detecting […]. The electrospray ionization source in both columns was operated in the positive ion and MRM detection modes. The MRM transitions for […] were m/z 462.2 (Q1) and 253.10 (Q3), respectively. The dynamic range of the assay was 0.50-50.0 ng/mL, and the total run time was 2 min. The lower limit of quantitation of the assay was […], and the dilution quality control concentration was set at 10 ng/mL with acceptance criteria for accuracy and precision of 25%.

[2] = Permeability (physiochemical properties); type: in vitro ADME
[3] = SC 250 mpk sunflower oil compared with PO 250 mpk
[4] = plasma, 250 mg/kg, SC 250 mpk, sunflower oil suspension, mean ± SD

reduction of Cmax, SC versus IP ([1]; SC 250 mpk compared with IP 150 mpk): approximately 4 fold
half-life extension, SC versus PO [1, 3]: 2.5 fold
increase of AUC, SC oil formulation versus oral [1, 3]: more than 5 fold
F ([1]; SC 250 mpk, sunflower oil suspension, mean ± SD, 250 mg/kg): 46.4 ± 13.2%
AUC(0-t) [1, 4]: 137 ± 51.1 µM·h
Cmax [1, 4]: 16.7 ± 12 µM
Tmax [1, 4]: 2.67 ± 1.15 h
half-life [1, 4]: 6.94 ± 2.93 h
bioavailability ([1]; plasma, sc, 250 mg/kg, SC 250 mpk, sunflower oil suspension, mean ± SD): 46%
permeability (in words) [2]: moderate permeability
Papp ([2]; not told): 5.79 ×10⁻⁶ cm/s
SMILES: Cc1nccnc1-c1nn2c(=O)cc(-c3ccc(C4CCCCC4)cc3)[nH]c2c1C(=O)N1CC(CF)C1 [G7883, 5-(4-cyclohexylphenyl)-3-[3-(fluoromethyl)azetidine-1-carbonyl]-2-(3-methylpyrazin-2-yl)-4H-pyrazolo[1,5-a]pyrimidin-7-one]
